The source of these data is US4013774A (priority 1975, dated 1977).

Read-outs that look alike come from different tables or passages of the source.

A word on the LD50: it is the dose at which mortality reaches 50%. Lower therefore signals greater toxicity.

The subject of data set [1] is American Cockroach (Periplaneta americana L.). The data set can be described thus: whole plant or invertebrate. To be noted: 24 h; for mortality at 16 ppm: read-out: Cockroach, mortality, 16 ppm.
Data set [2] relates to Aphids (Aphis gossypii Glover). Nature of the data set: whole plant or invertebrate. To be noted: in Cucumis sativus, 24 h; for mortality at 4 ppm: read-out: Aphids, mortality, 4 ppm; for mortality at 40 ppm: read-out: Aphids, mortality, 40 ppm (*).
Another data set can be described thus: in vivo. Particulars: rat, po.
Data set [3] relates to Mosquito larvae (Aedes aegypti). The data set can be described thus: whole plant or invertebrate. Particulars: 48 h, read-out: Mosquito, mortality, 0.05 ppm.
The test system of data set [4] is Flour Beetle (Tribolium confusum DuVal). Nature of the data set: whole plant or invertebrate. Particulars: in Triticum aestivum, 168 h, read-out: Flour Beetle, mortality, 5 ppm.
The test system of another data set is insects. To be noted: against a variety of insects; background, U.S. Pat. No. 3,474,171; cited from earlier work.
The next data set relates to rats. Particulars: background statement; cited from earlier work.
Setting [5] is: topical, read-out: Cockroach, mortality, 100 ppm.
Setting [6] is: read-out: Aphids, mortality, 0.64 ppm.

`CN(SN(C)C(=O)Oc1cccc2c1OC(C)(C)C2)C(=O)Oc1cccc2c1OC(C)(C)C2` [Bis[O-(2,3-dihydro-2,2-dimethyl-7-benzofuranyl]-N-methylcarbamyl] sulfide]: in data set [1] (read-out: control of American cockroaches), the mortality at 100 ppm came out at 100%. The mortality at 0.64 ppm in data set [2] (read-out: control of aphids) was 100%.
`CN(SC(Cl)(Cl)Cl)C(=O)Oc1cccc2c1OC(C)(C)C2` [Compound 1, N-methyl-N-trichloromethylthio-2,3-dihydro-2,2-dimethyl-7-benzofuranyl carbamate] registered an LD50 in the data set “in vivo” of 125 to 250 mg/kg. Also, the mortality at 0.05 ppm in data set [3] is 46%. The mortality at 5 ppm in data set [4] turned out to be 100%. Besides, in data set [1] (topical), the mortality at 16 ppm was found to be 15%. Besides, the mortality at 100 ppm in data set [1] (setting [5]) is 100%. For the same compound, the mortality at 0.64 ppm in data set [2] (setting [6]) was 91%. In data set [2], the mortality at 4 ppm was determined as 100%.
For the compound `CSN(C)C(=O)Oc1cccc2c1OC(C)(C)C2` [Compound 3, 2,3-dihydro-2,2-dimethyl-7-benzofuranyl N-methyl N-methylthiocarbamate], the LD50 in the data set “in vivo” was 5 to 25 mg/kg. The mortality at 16 ppm in data set [1] (topical) worked out at 100%. Moreover, the mortality at 100 ppm in data set [1] (setting [5]) amounted to 100%. In data set [2] (setting [6]), the mortality at 0.64 ppm is 97%. Moreover, the mortality at 4 ppm in data set [2] is 100%.
Take `CN(Sc1ccc(Cl)cc1)C(=O)Oc1cccc2c1OC(C)(C)C2` [Compound 4, 2,3-dihydro-2,2-dimethyl-7-benzofuranyl N-methyl N-p-chlorophenylthiocarbamate]: the LD50 in “in vivo” fell in the range of 25 to 41 mg/kg. For the same compound, the mortality at 0.05 ppm in data set [3] was found to be 100%. For the same compound, the mortality at 5 ppm in data set [4] came to 96%. Besides, the mortality at 16 ppm in data set [1] (topical) is 5%. In addition, the mortality at 100 ppm in data set [1] (setting [5]) was found to be 100%. Also, in data set [2] (setting [6]), the mortality at 0.64 ppm was 97%. In data set [2], the mortality at 4 ppm is 100%.
Turning to `CN(SC(Cl)=C(Cl)Cl)C(=O)Oc1cccc2c1OC(C)(C)C2` [Compound 5, N-methyl-N-trichlorovinylthio-2,3-dihydro-2,2-dimethyl-7-benzofuranyl carbamate], the mortality at 16 ppm in data set [1] (topical) was found to be 47%. Also, the mortality at 100 ppm in data set [1] (setting [5]) is 100%. In addition, the mortality at 0.64 ppm in data set [2] (setting [6]) came out at 100%. Also, the mortality at 4 ppm in data set [2] is 100%.
Turning to `CCCCSN(C)C(=O)Oc1cccc2c1OC(C)(C)C2` [Compound 6], the LD50 in “in vivo” fell in the range of 60 to 125 mg/kg. Also, in data set [3], the mortality at 0.05 ppm turned out to be 100%. Moreover, the mortality at 16 ppm in data set [1] (topical) was 95%. Besides, in data set [1] (setting [5]), the mortality at 100 ppm came out at 100%. Also, in data set [2] (setting [6]), the mortality at 0.64 ppm amounted to 97%. Also, the mortality at 4 ppm in data set [2] was found to be 100%.
In the case of `CCSN(C)C(=O)Oc1cccc2c1OC(C)(C)C2` [Compound 7, N-methyl-N-ethylthio-2,3-dihydro-2,2-dimethyl-7-benzofuranyl carbamate], the LD50 in “in vivo” was in the range of 25 to 125 mg/kg. In addition, the mortality at 0.05 ppm in data set [3] is 26%. Also, the mortality at 0.64 ppm in data set [2] (setting [6]) is 92%.
In turn, `CCCCCCCCCCCCSN(C)C(=O)Oc1cccc2c1OC(C)(C)C2` [Compound 8, N-methyl-N-dodecylthio-2,3-dihydro-2,2-dimethyl-7-benzofuranyl carbamate] showed an LD50 in “in vivo” of more than 125 mg/kg. Besides, in data set [1] (topical), the mortality at 16 ppm amounted to 0%. In addition, the mortality at 100 ppm in data set [1] (setting [5]) was found to be 20%. Further, in data set [2], the mortality at 40 ppm turned out to be 100%.
Compound `CN(Sc1ccccc1)C(=O)Oc1cccc2c1OC(C)(C)C2` [Compound 9, N-methyl-N-phenylthio-2,3-dihydro-2,2-dimethyl-7-benzofuranyl carbamate] yielded a median lethal dose (LD50) in “in vivo” of 25 to 125 mg/kg. For the same compound, the mortality at 16 ppm in data set [1] (topical) amounted to 37%. Also, in data set [1] (setting [5]), the mortality at 100 ppm came out at 100%. Moreover, the mortality at 0.64 ppm in data set [2] (setting [6]) is 98%. Moreover, in data set [2], the mortality at 4 ppm came out at 100%.
Consider `Cc1ccc(SN(C)C(=O)Oc2cccc3c2OC(C)(C)C3)cc1` [Compound 10], for which the LD50 in the data set “in vivo” lay within 25 to 125 mg/kg. Moreover, in data set [4], the mortality at 5 ppm is 76%. Further, in data set [1] (topical), the mortality at 16 ppm amounted to 2%. Besides, the mortality at 100 ppm in data set [1] (setting [5]) was 100%. In data set [2] (setting [6]), the mortality at 0.64 ppm worked out at 96%. Besides, in data set [2], the mortality at 4 ppm worked out at 100%.
In the data set “in vivo”, `CN(Sc1ccc(Cl)c(Cl)c1)C(=O)Oc1cccc2c1OC(C)(C)C2` [Compound 11] had a 50% lethal dose (LD50) of 25 to 125 mg/kg. In addition, in data set [3], the mortality at 0.05 ppm was determined as 100%. Also, in data set [2] (setting [6]), the mortality at 0.64 ppm is 97%.
The corresponding values for `CN(Sc1cc(Cl)ccc1Cl)C(=O)Oc1cccc2c1OC(C)(C)C2` [Compound 12] are 25 to 125 mg/kg, 100% and 61%.
The corresponding values for `CN(Sc1ccc(Br)cc1)C(=O)Oc1cccc2c1OC(C)(C)C2` [Compound 13] are 25 to 125 mg/kg, 93% and 98%.
`CN(Sc1ccc(F)cc1)C(=O)Oc1cccc2c1OC(C)(C)C2` [Compound 14, N-methyl-N-4-fluorophenylthio-2,3-dihydro-2,2-dimethyl-7-benzofuranyl carbamate]: the median lethal dose (LD50) in “in vivo” fell in the range of 25 to 125 mg/kg. Moreover, the mortality at 0.05 ppm in data set [3] was determined as 100%. For the same compound, in data set [2] (setting [6]), the mortality at 0.64 ppm was 92%.
On to `CN(Sc1ccc([N+](=O)[O-])cc1)C(=O)Oc1cccc2c1OC(C)(C)C2` [Compound 15], for which the LD50 in the data set “in vivo” lay in the range of 25 to 60 mg/kg. For the same compound, in data set [1] (topical), the mortality at 16 ppm was 97%. For the same compound, the mortality at 100 ppm in data set [1] (setting [5]) turned out to be 100%. Also, in data set [2] (setting [6]), the mortality at 0.64 ppm was 96%. For the same compound, in data set [2], the mortality at 4 ppm was 100%.
As for `CN(Sc1ccc(C(C)(C)C)cc1)C(=O)Oc1cccc2c1OC(C)(C)C2` [Compound 16], in “in vivo”, the LD50 was in the range of 125 to 250 mg/kg. Further, the mortality at 16 ppm in data set [1] (topical) was 0%. Also, the mortality at 100 ppm in data set [1] (setting [5]) is 67%. In addition, the mortality at 40 ppm in data set [2] is 100%.
In “in vivo”, `CNC(=O)Oc1cccc2c1OC(C)(C)C2` [FURADAN, N-methyl 2,3-dihydro-2,2-dimethyl-7-benzofuranyl carbamate, reference compound] registered an LD50 of 11 mg/kg. Moreover, in the data set with insects, the “contact and systemic activity” value is “high contact and systemic activity”. The mortality at 0.05 ppm in data set [3] is 0%. For the same compound, the mortality at 5 ppm in data set [4] stood at 10%. Also, in the data set with rats, the “oral toxicity, LD50 (rats)” value is 5 to 11 mg/kg. In data set [1] (topical), the mortality at 16 ppm is 100%. In addition, in data set [1] (setting [5]), the mortality at 100 ppm was determined as 100%. For the same compound, the mortality at 0.64 ppm in data set [2] (setting [6]) is 73 to 98%. Besides, in data set [2], the mortality at 4 ppm stood at 100%.
